From patent publication US10851067B2, “Kv7 channel activators compositions and methods of use” (Knopp Biosciences LLC, priority 2018, dated 2020)

What follows are molecules tested against Kv7.2/7.3 (Homo sapiens, UniProt O43525+O43526) (assay: Kv7.2/7.3 Activation Assay, QPatch single concentration screen). Conditions: Kv7.2/Kv7.3 co-expressing HEK cells, compound concentration 3 μM, steady-state current at end of 2 s pulse to −30 mV.
Format: cell-based
Design: host or cells: HEK cells, tetracycline-inducible expression; key: 1.2-2.9 (+); 3-3.9 (++); >4 (+++) fold increase over baseline; O represents open channel at holding potential
Method: Kv7.2/7.3 Activation Assay
The ability of compounds to potentiate K-currents in Kv7.2/7.3 containing HEK cells was assessed using planar patch-clamp on the QPatch automated screening platform.
The hKv7.2/7.3 cell line was obtained from Chantest (Cleveland, Ohio 44128) cat. #CT6147. These HEK cells will express the Kv7.2/7.3 ion channels when induced.
Cells were maintained in a media containing DMEM/F12; 50/50 (GIBCO cat. #11330), 10% Fetal Bovine Serum (FBS) (GIBCO cat. #26140), 100 units/mL Penicillin-Streptomycin (GIBCO cat. #15140), 0.005 mg/mL Blasticidin (INVIVOGEN cat. #ant-b1-1), 0.5 mg/mL Geneticin (GIBCO cat. #10131), 0.1 mg/mL Zeocin (GIBCO cat. #R25001). Cells used in the electrophysiology assay were maintained in a media without Blasticidin, Geneticin and Zeocin for 2 days and channel expression was induced by adding tetracycline (BIOLINE cat. #BIO-87030) at a final concentration of 1 mg/mL. Cells were grown in T-175 flask to ˜75% confluency. Currents were recorded 24 hours after channel induction.
Test compounds were prepared by performing serial dilutions on a Biomek NX^P (BECKMAN COULTER). Final dilutions were made in external recording solution with a final DMSO concentration of 0.1% DMSO. For single concentration screens each plate had 10 μM retigabine as a positive control and 0.1% DMSO as a negative control.
On the day of the experiment cells were washed with Hank's Balanced Salt Solution (HBBS) (GIBCO cat. #14175) and harvested with Tryple (GIBCO cat. #12604). Cells were then centrifuged at 2000 rpm for 5 minutes and resuspended in CHO-S-SFM (GIBCO cat. #12052) at ˜3×10^6 cells/mL. Cells were stirred for 30 minutes before experiments were started. External recording solution contained (in mM): NaCl (145), KCl (4), CaCl2 (2), MgCl2 (1), HEPES (10) and Glucose (10); pH was adjusted to 7.4 with NaOH and the osmolarity was adjusted to 300-305 mOsM with sucrose if necessary. Internal solution contained (in mM): KCl (125), KF (10), EGTA (5), Na2ATP (5), MgCl2 (3.2), HEPES (5); pH was adjusted to 7.2 with KOH and the osmolarity was adjusted to 298-302 mOsM with sucrose.
Potassium channel activity was measured on the QPatch HTX (Sophion Bioscience) using QPlates with 48-wells/plate. Each cell was taken as an independent experiment and only one compound was tested per well. Potassium channel activity was elicited by holding at −80 mV and stepping to −30 mV for 2 s followed by a 100 ms pulse to −120 mV.
Single Concentration Screen:
Baseline conditions were obtained by recording 5 sweeps in the external solution only, this was repeated for three applications of the external solution. The effect of test compounds on elicited current was then assessed by recording 5 sweeps in the presence of a 3 μM compound solution. The steady-state current at the end of the 2 s pulse to −30 mV was measured to determine the fold increase from baseline.

Compound	Kv7.2/7.3 Activity: increase over baseline in current
CC(C)(CC(=O)Nc1nc2c(F)cc(OC(F)F)cc2n1C1(C)CCC1)C1CC1 [Example 338, 3-cyclopropyl-N-(6-(difluoromethoxy)-4-fluoro-1-(1-methylcyclobutyl)-1H-benzo[d]imidazol-2-yl)-3-methylbutanamide]	+++ (>4 (+++) fold increase over baseline)
C[C@H](CC(=O)Nc1nc2ccc(C(C)(C)O)cc2n1C1CCC1)c1ccccc1 [Example 336, (R)-N-(1-cyclobutyl-6-(2-hydroxypropan-2-yl)-1H-benzo[d]imidazol-2-yl)-3-phenylbutanamide]	+ (1.2-2.9 (+))
CC(C)(C)CC(=O)Nc1nc2ccc(C(C)(C)O)cc2n1C1CC(F)(F)C1 [Example 332, N-(1-(3,3-difluorocyclobutyl)-6-(2-hydroxypropan-2-yl)-1H-benzo[d]imidazol-2-yl)-3,3-dimethylbutanamide]	+ (1.2-2.9 (+))
CC(C)(C)Cn1c(NC(=O)CC(C)(O)c2ccccc2)nc2ccc(C#N)cc21 (single isomer, unassigned) [Example 341, N-(6-cyano-1-neopentyl-1H-benzo[d]imidazol-2-yl)-3-hydroxy-3-phenylbutanamide]	+ (1.2-2.9 (+))
CC(C)(C)CC(=O)Nc1nc2ccc(OC(F)F)cc2n1C1CCC1 [Example 389, N-(1-cyclobutyl-6-(difluoromethoxy)-1H-benzo[d]imidazol-2-yl)-3,3-dimethylbutanamide]	++ (3-3.9 (++))
CC(C)(CC(=O)Nc1nc2ccc(OC(F)F)cc2n1C1(C)CCC1)C1CC1 [Example 434, 3-cyclopropyl-N-(6-(difluoromethoxy)-1-(1-methylcyclobutyl)-1H-benzo[d]imidazol-2-yl)-3-methylbutanamide]	+++ (>4 (+++) fold increase over baseline)
CC(CF)(CF)CC(=O)Nc1nc2ccc(C(C)(C)O)cc2n1C1CCC1 [Example 370, N-(1-cyclobutyl-6-(2-hydroxypropan-2-yl)-1H-benzo[d]imidazol-2-yl)-4-fluoro-3-(fluoromethyl)-3-methylbutanamide]	++ (3-3.9 (++))
CC(C)(O)c1cc(F)c2nc(NC(=O)CC(C)(C)C(F)(F)F)n(C3CCC3)c2c1F [Example 385, N-(1-cyclobutyl-4,7-difluoro-6-(2-hydroxypropan-2-yl)-1H-benzo[d]imidazol-2-yl)-4,4,4-trifluoro-3,3-dimethylbutanamide]	O
CC(=O)c1c(F)ccc2nc(NC(=O)CC(C)(O)c3ccccc3)n(C3(C)CCC3)c12 (single isomer, unassigned) [Example 360, N-(7-acetyl-6-fluoro-1-(1-methylcyclobutyl)-1H-benzo[d]imidazol-2-yl)-3-hydroxy-3-phenylbutanamide]	O
CC(C)(C)CC(=O)Nc1nc2c(F)cc(OC(F)F)cc2n1C1(C)CCC1 [Example 459, N-(6-(difluoromethoxy)-4-fluoro-1-(1-methylcyclobutyl)-1H-benzo[d]imidazol-2-yl)-3,3-dimethylbutanamide]	+++ (>4 (+++) fold increase over baseline)
COc1cc(Br)cc2c1nc(NC(=O)CC(C)(C)C)n2C1(C)CCC1 [Example 392, N-(6-bromo-4-methoxy-1-(1-methylcyclobutyl)-1H-benzo[d]imidazol-2-yl)-3,3-dimethylbutanamide]	+++ (>4 (+++) fold increase over baseline)
CC(C)(C)CC(=O)Nc1nc2c(F)cc(OC(F)F)cc2n1C1CCC1 [Example 331, N-(1-cyclobutyl-6-(difluoromethoxy)-4-fluoro-1H-benzo[d]imidazol-2-yl)-3,3-dimethylbutanamide]	+++ (>4 (+++) fold increase over baseline)
CC(C)(O)CC(=O)Nc1nc2ccc(OC(F)F)c(F)c2n1C1(C)CCC1 [Example 351, N-(6-(difluoromethoxy)-7-fluoro-1-(1-methylcyclobutyl)-1H-benzo[d]imidazol-2-yl)-3-hydroxy-3-methylbutanamide]	+ (1.2-2.9 (+))
CC(C)(CC(=O)Nc1nc2c(F)cc(C#N)cc2n1C(C)(C)C)C(F)F [Example 364, N-(1-(tert-butyl)-6-cyano-4-fluoro-1H-benzo[d]imidazol-2-yl)-4,4-difluoro-3,3-dimethylbutanamide]	++ (3-3.9 (++))
CC(C)(CC(=O)Nc1nc2ccc(C#N)cc2n1C(C)(C)C(F)(F)F)C1CC1 [Example 333, N-(6-cyano-1-(1,1,1-trifluoro-2-methylpropan-2-yl)-1H-benzo[d]imidazol-2-yl)-3-cyclopropyl-3-methylbutanamide]	++ (3-3.9 (++))
CC1(CC(=O)Nc2nc3ccc(C(C)(C)O)cc3n2C2(C)CCC2)CC1 [Example 391, N-(6-(2-hydroxypropan-2-yl)-1-(1-methylcyclobutyl)-1H-benzo[d]imidazol-2-yl)-2-(1-methylcyclopropyl)acetamide]	+ (1.2-2.9 (+))

The remaining lines, values ahead:

Kv7.2/7.3 Activity: increase over baseline in current	Compound
O	CC(CF)(CF)CC(=O)Nc1nc2c(F)cc(C(C)(C)O)cc2n1C1(C)CCC1 [Example 480, 4-fluoro-N-(4-fluoro-6-(2-hydroxypropan-2-yl)-1-(1-methylcyclobutyl)-1H-benzo[d]imidazol-2-yl)-3-(fluoromethyl)-3-methylbutanamide]
O	CC(O)(CC(=O)Nc1nc2ccc(C#N)cc2n1C1CCC1)c1ccccc1F (single isomer, unassigned) [Example 452, N-(6-cyano-1-cyclobutyl-1H-benzo[d]imidazol-2-yl)-3-(2-fluorophenyl)-3-hydroxybutanamide]
++ (3-3.9 (++))	CC(C)(CC(=O)Nc1nc2ccc(OC(F)F)cc2n1C(C)(C)C)C1CC1 [Example 427, N-(1-(tert-butyl)-6-(difluoromethoxy)-1H-benzo[d]imidazol-2-yl)-3-cyclopropyl-3-methylbutanamide]
++ (3-3.9 (++))	C[C@H](CC(=O)Nc1nc2c(F)cc(C(C)(C)O)cc2n1C1CCC1)c1ccccc1 [Example 412, (R)-N-(1-cyclobutyl-4-fluoro-6-(2-hydroxypropan-2-yl)-1H-benzo[d]imidazol-2-yl)-3-phenylbutanamide]
++ (3-3.9 (++))	CC(O)(CC(=O)Nc1nc2ccc(OC(F)F)cc2n1C1CCC1)c1ccccc1 (single isomer, unassigned) [Example 402, N-(1-cyclobutyl-6-(difluoromethoxy)-1H-benzo[d]imidazol-2-yl)-3-hydroxy-3-phenylbutanamide]
+ (1.2-2.9 (+))	CC(C)(O)c1ccc2nc(NC(=O)CC(C)(C)C(F)(F)F)n(C34CC(C3)C4)c2c1 [Example 404, N-(1-(bicyclo[1.1.1]pentan-1-yl)-6-(2-hydroxypropan-2-yl)-1H-benzo[d]imidazol-2-yl)-4,4,4-trifluoro-3,3-dimethylbutanamide]
++ (3-3.9 (++))	CC(C)(CC(=O)Nc1nc2c(F)cc(C#N)cc2n1C12CC(C1)C2)C(F)(F)F [Example 431, N-(1-(bicyclo[1.1.1]pentan-1-yl)-6-cyano-4-fluoro-1H-benzo[d]imidazol-2-yl)-4,4,4-trifluoro-3,3-dimethylbutanamide]
++ (3-3.9 (++))	CC(C)(C)CC(=O)Nc1nc2ccc(F)cc2n1C1CCC1 [Example 417, N-(1-cyclobutyl-6-fluoro-1H-benzo[d]imidazol-2-yl)-3,3-dimethylbutanamide]
